Our source for the Kd values is PMC5453487, “Targeting YAP/TAZ-TEAD protein-protein interactions using fragment-based and computational modeling approaches” (PLoS ONE, 2017).

This assay concerns the target mouse TEAD4 (mTEAD4) (Mus musculus, UniProt Q62296). The assay is described as follows: X-ray co-crystal structure ([…] Å), ITC; also thermal shift assay and MST ([…]). The class given is binding.

Chain of mouse TEAD4 (mTEAD4) (Q62296 210-427): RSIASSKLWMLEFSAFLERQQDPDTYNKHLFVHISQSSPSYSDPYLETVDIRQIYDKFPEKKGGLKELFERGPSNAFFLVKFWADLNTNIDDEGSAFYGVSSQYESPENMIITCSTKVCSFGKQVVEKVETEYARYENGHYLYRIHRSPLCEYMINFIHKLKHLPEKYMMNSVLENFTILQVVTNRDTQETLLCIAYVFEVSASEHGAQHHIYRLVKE

Regarding `O=C(O)C(c1ccccc1)n1cccc1` (stereo not shown) [compound 1, fragment 1], the equilibrium dissociation constant (Kd) was around 300 µM.
